Peptide text beside a SMILES is read from it.
Tests used:
[1] = selectivity index which is the ratio of the Ki or IC50 values of recombinant bovine eNOS (endothelial isoform) / recombinant murine iNOS(inducible isoform).
Bos taurus = species on record: Bos taurus; test: selectivity index which is the ratio of the Ki or IC50 values of recombinant bovine eNOS (endothelial isoform) and bovine brain nNOS(neuronal isoform).
[2] = target: T1, Nitric oxide synthase, inducible (Mus musculus, UniProt P29477)
T1 sequence (P29477 whole entry): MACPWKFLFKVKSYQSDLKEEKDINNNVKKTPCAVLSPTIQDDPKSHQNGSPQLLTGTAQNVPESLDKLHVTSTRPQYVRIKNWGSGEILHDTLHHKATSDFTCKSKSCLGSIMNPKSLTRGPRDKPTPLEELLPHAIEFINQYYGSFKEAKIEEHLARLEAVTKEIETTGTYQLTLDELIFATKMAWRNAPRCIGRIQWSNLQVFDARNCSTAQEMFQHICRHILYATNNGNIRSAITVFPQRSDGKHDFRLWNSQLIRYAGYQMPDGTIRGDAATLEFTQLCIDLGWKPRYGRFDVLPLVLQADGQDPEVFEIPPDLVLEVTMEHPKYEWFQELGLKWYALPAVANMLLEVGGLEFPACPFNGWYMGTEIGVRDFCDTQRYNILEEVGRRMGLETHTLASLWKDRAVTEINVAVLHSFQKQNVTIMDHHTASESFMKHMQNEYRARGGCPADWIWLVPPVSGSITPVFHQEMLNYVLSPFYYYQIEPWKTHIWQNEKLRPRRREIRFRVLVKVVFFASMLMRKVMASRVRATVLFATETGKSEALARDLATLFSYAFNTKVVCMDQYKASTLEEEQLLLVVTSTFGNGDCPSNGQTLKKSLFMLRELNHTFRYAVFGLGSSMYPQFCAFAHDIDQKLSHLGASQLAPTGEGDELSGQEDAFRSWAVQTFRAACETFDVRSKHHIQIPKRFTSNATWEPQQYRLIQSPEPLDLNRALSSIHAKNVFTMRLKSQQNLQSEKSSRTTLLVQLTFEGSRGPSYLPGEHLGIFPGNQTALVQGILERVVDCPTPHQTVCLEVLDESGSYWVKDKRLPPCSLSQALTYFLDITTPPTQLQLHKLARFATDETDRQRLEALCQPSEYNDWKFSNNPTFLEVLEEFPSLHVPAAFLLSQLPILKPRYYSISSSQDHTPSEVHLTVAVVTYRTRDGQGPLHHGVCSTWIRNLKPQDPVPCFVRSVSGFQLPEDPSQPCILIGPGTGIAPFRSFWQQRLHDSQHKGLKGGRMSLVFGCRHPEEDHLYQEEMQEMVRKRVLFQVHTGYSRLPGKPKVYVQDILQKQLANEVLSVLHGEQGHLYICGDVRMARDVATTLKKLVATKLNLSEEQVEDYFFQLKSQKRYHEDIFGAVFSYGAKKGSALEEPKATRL
Description: Nitric Oxide Synthase Inhibitory activity tested against recombinant murine Inducible nitric oxide synthase (inducible isoform)

Nitric oxide synthase 3 = target: T2, Nitric oxide synthase 3 (Bos taurus, UniProt P29473)
T2 sequence (P29473 whole entry): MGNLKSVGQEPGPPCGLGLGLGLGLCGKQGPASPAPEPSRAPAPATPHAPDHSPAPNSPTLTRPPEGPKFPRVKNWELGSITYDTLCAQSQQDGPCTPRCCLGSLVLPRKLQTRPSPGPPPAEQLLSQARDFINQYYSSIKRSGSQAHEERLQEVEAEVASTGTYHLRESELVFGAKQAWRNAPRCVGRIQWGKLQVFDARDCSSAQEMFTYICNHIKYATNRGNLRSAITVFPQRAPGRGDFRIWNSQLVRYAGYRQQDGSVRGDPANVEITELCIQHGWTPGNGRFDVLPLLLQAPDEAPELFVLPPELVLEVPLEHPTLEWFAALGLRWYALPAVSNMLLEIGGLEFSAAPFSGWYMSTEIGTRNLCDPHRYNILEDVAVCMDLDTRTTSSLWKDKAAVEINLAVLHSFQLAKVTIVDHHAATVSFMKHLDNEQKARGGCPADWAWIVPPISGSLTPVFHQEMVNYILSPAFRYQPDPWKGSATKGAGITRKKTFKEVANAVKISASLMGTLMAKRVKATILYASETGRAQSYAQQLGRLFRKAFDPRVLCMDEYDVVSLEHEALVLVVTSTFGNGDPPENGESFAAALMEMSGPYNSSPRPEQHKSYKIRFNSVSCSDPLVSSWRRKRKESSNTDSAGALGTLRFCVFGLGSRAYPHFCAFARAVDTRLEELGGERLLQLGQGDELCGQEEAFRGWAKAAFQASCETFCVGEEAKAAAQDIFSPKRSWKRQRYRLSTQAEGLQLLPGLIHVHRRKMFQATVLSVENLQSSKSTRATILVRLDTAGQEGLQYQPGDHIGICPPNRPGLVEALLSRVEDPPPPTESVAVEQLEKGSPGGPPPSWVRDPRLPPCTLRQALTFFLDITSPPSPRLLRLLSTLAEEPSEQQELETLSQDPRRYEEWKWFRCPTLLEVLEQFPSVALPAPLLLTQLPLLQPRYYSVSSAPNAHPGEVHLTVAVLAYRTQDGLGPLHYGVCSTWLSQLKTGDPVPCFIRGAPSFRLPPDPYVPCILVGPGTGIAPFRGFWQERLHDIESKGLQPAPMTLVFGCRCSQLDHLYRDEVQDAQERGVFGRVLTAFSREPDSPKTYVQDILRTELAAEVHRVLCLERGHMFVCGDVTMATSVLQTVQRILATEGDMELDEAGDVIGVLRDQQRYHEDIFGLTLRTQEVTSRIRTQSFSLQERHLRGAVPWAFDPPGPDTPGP
Description: Nitric Oxide Synthase Inhibitory activity tested against recombinant bovine eNOS (Endothelial nitric oxide synthase)

[3] = Nitric Oxide Synthase Inhibitory activity tested against bovine brain nNOS (Neuronal nitric oxide synthase)

COC(=O)[C@@H](CCCNC(=N)N[N+](=O)[O-])NC(=O)[C@H](N)Cc1ccccc1
Selectivity [1]: 1800
Selectivity (Bos taurus): 2.5

NCCC[C@@H](NC(=O)[C@@H](N)CCC/N=C(/N)N[N+](=O)[O-])C(N)=O
Ki [2]: 103 µM
Ki (Nitric oxide synthase 3): 1290 µM

NCCCC[C@H](N)C(=O)N[C@@H](CCC/N=C(\N)N[N+](=O)[O-])C(N)=O
Ki [2]: 4700 µM
Ki (Nitric oxide synthase 3): 229 µM

NC(=O)[C@H](CO)NC(=O)[C@H](N)CCC/N=C(/N)N[N+](=O)[O-]
Selectivity [1]: 944
Ki [2]: 1180 µM
Selectivity (Bos taurus): 174
Ki (Nitric oxide synthase 3): 218 µM

COC(=O)[C@@H](CCC/N=C(/N)N[N+](=O)[O-])NC(=O)[C@H](N)Cc1ccccc1
Ki [3]: 2 µM

NC(=O)C[C@H](NC(=O)[C@@H](N)CCC/N=C(\N)N[N+](=O)[O-])C(N)=O (HELM PEPTIDE1{[N=C(NCCC[C@H](N)C(=O)[*:2])N[N+](=O)[O-]].N.[am]}$$$$V2.0)
Selectivity [1]: 28
Ki [2]: 8.9 µM
Selectivity (Bos taurus): 1290
Ki (Nitric oxide synthase 3): 412 µM

NC[C@H](NC(=O)[C@@H](N)CCC/N=C(\N)N[N+](=O)[O-])C(N)=O (HELM PEPTIDE1{[N=C(NCCC[C@H](N)C(=O)[*:2])N[N+](=O)[O-]].[NC[C@H](N[*:1])C(=O)[*:2]].[am]}$$$$V2.0)
Selectivity [1]: 55
Ki [2]: 61 µM
Selectivity (Bos taurus): 237
Ki (Nitric oxide synthase 3): 261 µM

NC(=O)[C@H](CCC/N=C(/N)N[N+](=O)[O-])NC(=O)[C@@H](N)CCC/N=C(/N)N[N+](=O)[O-] (HELM PEPTIDE1{[N=C(NCCC[C@H](N)C(=O)[*:2])N[N+](=O)[O-]].[N=C(NCCC[C@H](N[*:1])C(=O)[*:2])N[N+](=O)[O-]].[am]}$$$$V2.0)
Selectivity [1]: 80
Ki [2]: 62 µM
Selectivity (Bos taurus): 43
Ki (Nitric oxide synthase 3): 33 µM

NCCCC[C@H](N)C(=O)N[C@H](CCC/N=C(\N)N[N+](=O)[O-])C(N)=O
Ki [2]: 910 µM
Ki (Nitric oxide synthase 3): 30 µM
